The test system of data set [1] is RAW264.7. Put plainly: Antiinflammatory activity in mouse RAW264.7 cells assessed as inhibition of LPS-induced NO production at 1 uM. In kind it is functional.
Data set [2] concerns RAW264.7. Put plainly: Antiinflammatory activity in mouse RAW264.7 cells assessed as inhibition of LPS-induced NO production at 10 uM. In kind it is functional.
Data set [3] is described as follows: Cytotoxicity against mouse RAW264.7 cells assessed as cell proliferation at 1 uM. To be noted: read-out: Activity. The class given is cell-based.
A short description of data set [4]: Cytotoxicity against mouse RAW264.7 cells assessed as cell proliferation at 10 uM. In kind it is cell-based. To be noted: read-out: Activity.
Data set [5] relates to RAW264.7. Put plainly: Antiinflammatory activity in mouse RAW264.7 cells assessed as inhibition of LPS-induced NO production. In kind it is functional, cell-based.

As for `COc1cc(/C=C/C(=O)N2CCCC2=O)cc(OC)c1OC`, the inhibition – broadly, the relative decrease from the control value, in per cent – at 1 µM in data set [1] came to 1%. Also, in data set [2], the inhibition at 10 µM was 28%. Besides, the viability at 1 µM in data set [3] is 105%. For the same compound, the viability at 10 µM in data set [4] came to 102%. In data set [5], the concentration for half-maximal inhibition (IC50) – broadly, the concentration that gives 50% inhibition – came to 80 µM.
In the same order, the values of `COc1cc(/C=C/C(=O)NC(C)=O)cc(OC)c1OC` are -1%, 16%, 104%, 104% and 341 µM.
The corresponding values for `COc1cc(/C=C/C(=O)N2CCCCC2=O)cc(OC)c1OC` are 1%, 46%, 107%, 101% and 14 µM.
The corresponding values for `CCC(=O)NC(=O)/C=C/c1cc(OC)c(OC)c(OC)c1` are -1%, 16%, 97%, 103% and 64 µM.
As for `COc1cc(/C=C/C(=O)N2CCC2=O)cc(OC)c1OC`, the inhibition at 1 µM in data set [1] is 1%. In addition, in data set [2], the inhibition at 10 µM turned out to be 22%. In addition, the viability at 1 µM in data set [3] stood at 97%. For the same compound, the viability at 10 µM in data set [4] worked out at 92%. The half-maximal inhibitory concentration (IC50) in data set [5] stood at 64 µM.
In the same order, the values of `COc1cc(/C=C/C(=O)N2CCC=CC2=O)cc(OC)c1OC` [PIPLARTINE] are 11%, 91%, 115%, 77% and 3 µM.

(Values after ChEMBL document CHEMBL3352224, “Synthesis and biological evaluation of piperlongumine derivatives as potent anti-inflammatory agents” (Bioorg Med Chem Lett, 2014).)
